Experimental data published in ChEMBL document CHEMBL1133206, “Antifungal rapamycin analogues with reduced immunosuppressive activity” (Bioorg Med Chem Lett, 2000).
In brackets after ≈: the same amount, converted by molar mass.

Legend:
[1] = tested on: Candida albicans; test: In vitro for antifungal activity against Candida albicans (CA 579a); assay type: functional
[2] = tested on: Candida albicans; test: In vitro antifungal activity against Candida albicans (CA 62376); Weak; assay type: functional, organism-based
[3] = organism: Homo sapiens; test: Inhibitory activity against human concanavalin-A proliferation assay; assay type: functional
[4] = tested on: Candida albicans; test: In vitro antifungal activity against Candida albicans (CA 442); Weak; assay type: functional, organism-based
[5] = tested on: Nakaseomyces glabratus; test: In vitro antifungal activity against Torulopsis glabrata (TG 15545); assay type: functional
[6] = tested on: Candida albicans; test: In vitro antifungal activity against […] (CA 34140); Not affected.; assay type: functional
[7] = tested on: Candida albicans; test: In vitro antifungal activity against Candida albicans (CA 10231); assay type: functional
[8] = tested on: Candida albicans; test: In vitro antifungal activity against Candida albicans (CA 38247); Weak; assay type: functional, organism-based
[9] = tested on: Aspergillus niger; test: In vitro antifungal activity at a minimum inhibitory concentration (~100 ug/mL) against Aspergillus niger; Not affected; assay type: functional; conditions: Aspergillus niger; read-out: MIC
[10] = tested on: Candida tropicalis; test: In vitro antifungal activity against Candida tropicalis (CT 750); assay type: functional
[11] = tested on: Pichia kudriavzevii; test: In vitro antifungal activity against Candida krusei (CK 28838); assay type: functional

| Structure (SMILES) | MIC [1] [µg/mL] | MIC [2] | IC50 [3] [nM] | MIC [4] | MIC [5] [µg/mL] | MIC [6] [µg/mL] | MIC [7] [µg/mL] | MIC [8] | MIC [9] [µg/mL] | MIC [10] [µg/mL] | MIC [11] [µg/mL] |
| --- | --- | --- | --- | --- | --- | --- | --- | --- | --- | --- | --- |
| COC(=O)N(O)[C@H]1C[C@@H]2CC[C@@H](C)[C@@](O)(O2)C(=O)C(=O)N2CCCC[C@H]2C(=O)O[C@H]([C@H](C)C[C@@H]2CC[C@@H](O)[C@H](OC)C2)CC(=O)[C@H](C)/C=C(\C)[C@@H](O)[C@@H](OC)C(=O)[C@H](C)C[C@H](C)/C=C/C=C/C=C/1C | 50 (≈ 51.4 µM) | Weak | 1.47 | Weak | 1.56 (≈ 1.6 µM) | ~100 (≈ 103 µM) | 25 (≈ 25.7 µM) | Weak | ~100 (≈ 103 µM) | 25 (≈ 25.7 µM) | 1.56 (≈ 1.6 µM) |
| CO[C@@H]1C[C@H](C[C@@H](C)[C@@H]2CC(=O)[C@H](C)/C=C(\C)[C@@H](O)[C@@H](OC)C(=O)[C@H](C)C[C@H](C)/C=C/C=C/C=C(\C)[C@@H](N(O)C(=O)N3CCOCC3)C[C@@H]3CC[C@@H](C)[C@@](O)(O3)C(=O)C(=O)N3CCCC[C@H]3C(=O)O2)CC[C@H]1O | 50 (≈ 48.6 µM) | Weak | 1620 | Weak | 3.12 (≈ 3.03 µM) | ~100 (≈ 97.2 µM) | 25 (≈ 24.3 µM) | Weak | ~100 (≈ 97.2 µM) | 25 (≈ 24.3 µM) | 6.25 (≈ 6.08 µM) |
| CO[C@@H]1C[C@H](C[C@@H](C)[C@@H]2CC(=O)[C@H](C)/C=C(\C)[C@@H](O)[C@@H](OC)C(=O)[C@H](C)C[C@H](C)/C=C/C=C/C=C(\C)[C@H](N(OC)C(=O)N(C)C)C[C@@H]3CC[C@@H](C)[C@@](O)(O3)C(=O)C(=O)N3CCCC[C@H]3C(=O)O2)CC[C@H]1O | 50 (≈ 50 µM) | Weak | 6.5 | Weak | 1.56 (≈ 1.56 µM) | ~100 (≈ 100 µM) | 50 (≈ 50 µM) | Weak | ~100 (≈ 100 µM) | 50 (≈ 50 µM) | 1.56 (≈ 1.56 µM) |
| COC(=O)N(O)[C@@H]1C[C@@H]2CC[C@@H](C)[C@@](O)(O2)C(=O)C(=O)N2CCCC[C@H]2C(=O)O[C@H]([C@H](C)C[C@@H]2CC[C@@H](O)[C@H](OC)C2)CC(=O)[C@H](C)/C=C(\C)[C@@H](O)[C@@H](OC)C(=O)[C@H](C)C[C@H](C)/C=C/C=C/C=C/1C | 6.25 (≈ 6.42 µM) | Weak | 16 | Weak | 0.78 (≈ 0.801 µM) | ~100 (≈ 103 µM) | 3.12 (≈ 3.21 µM) | Weak | ~100 (≈ 103 µM) | 3.12 (≈ 3.21 µM) | 0.39 (≈ 0.401 µM) |
| CO[C@@H]1C[C@H](C[C@@H](C)[C@@H]2CC(=O)[C@H](C)/C=C(\C)[C@@H](O)[C@@H](OC)C(=O)[C@H](C)C[C@H](C)/C=C/C=C/C=C(\C)[C@H](c3ccc(C)s3)C[C@@H]3CC[C@@H](C)[C@@](O)(O3)C(=O)C(=O)N3CCCC[C@H]3C(=O)O2)CC[C@H]1O | 12.5 (≈ 12.8 µM) | Weak | 221 | Weak | 0.78 (≈ 0.796 µM) | ~100 (≈ 102 µM) | 3.12 (≈ 3.18 µM) | Weak | ~100 (≈ 102 µM) | 1.56 (≈ 1.59 µM) | 1.56 (≈ 1.59 µM) |
| CO[C@@H]1C[C@H](C[C@@H](C)[C@@H]2CC(=O)[C@H](C)/C=C(\C)[C@@H](O)[C@@H](OC)C(=O)[C@H](C)C[C@H](C)/C=C/C=C/C=C(\C)[C@@H](N(O)C(=O)OCC(C)C)C[C@@H]3CC[C@@H](C)[C@@](O)(O3)C(=O)C(=O)N3CCCC[C@H]3C(=O)O2)CC[C@H]1O | 12.5 (≈ 12.3 µM) | Weak | 760 | Weak | 0.78 (≈ 0.768 µM) | ~100 (≈ 98.5 µM) | 3.12 (≈ 3.07 µM) | Weak | ~100 (≈ 98.5 µM) | 3.12 (≈ 3.07 µM) | 0.78 (≈ 0.768 µM) |
| CCCOC(=O)N(O)[C@H]1C[C@@H]2CC[C@@H](C)[C@@](O)(O2)C(=O)C(=O)N2CCCC[C@H]2C(=O)O[C@H]([C@H](C)C[C@@H]2CC[C@@H](O)[C@H](OC)C2)CC(=O)[C@H](C)/C=C(\C)[C@@H](O)[C@@H](OC)C(=O)[C@H](C)C[C@H](C)/C=C/C=C/C=C/1C | 12.5 (≈ 12.5 µM) | Weak | 900 | Weak | 1.56 (≈ 1.56 µM) | ~100 (≈ 99.9 µM) | 12.5 (≈ 12.5 µM) | Weak | ~100 (≈ 99.9 µM) | 6.25 (≈ 6.24 µM) | 0.78 (≈ 0.779 µM) |
| CO[C@@H]1C[C@H](C[C@@H](C)[C@@H]2CC(=O)[C@H](C)/C=C(\C)[C@@H](O)[C@@H](OC)C(=O)[C@H](C)C[C@H](C)/C=C/C=C/C=C(\C)[C@@H](N(OC)C(=O)N(C)C)C[C@@H]3CC[C@@H](C)[C@@](O)(O3)C(=O)C(=O)N3CCCC[C@H]3C(=O)O2)CC[C@H]1O | > 100 | Weak | 3610 | Weak | 3.12 (≈ 3.12 µM) | ~100 (≈ 100 µM) | > 100 | Weak | ~100 (≈ 100 µM) | 50 (≈ 50 µM) | 3.12 (≈ 3.12 µM) |
| CO[C@H]1C[C@@H]2CC[C@@H](C)[C@@](O)(O2)C(=O)C(=O)N2CCCC[C@H]2C(=O)O[C@H]([C@H](C)C[C@@H]2CC[C@@H](OC(=O)N(C)C)[C@H](OC)C2)CC(=O)[C@H](C)/C=C(\C)[C@@H](O)[C@@H](OC)C(=O)[C@H](C)C[C@H](C)CCCC/C=C/1C | 50 (≈ 50.5 µM) |  | 485 |  |  |  | 50 (≈ 50.5 µM) |  |  | > 100 | 6.25 (≈ 6.32 µM) |
| CO[C@H]1C[C@@H]2CC[C@@H](C)[C@@](O)(O2)C(=O)C(=O)N2CCCC[C@H]2C(=O)O[C@H]([C@H](C)C[C@@H]2CC[C@@H](OC(=O)N(C)O)[C@H](OC)C2)CC(=O)[C@H](C)/C=C(\C)[C@@H](O)[C@@H](OC)C(=O)[C@H](C)C[C@H](C)CCCC/C=C/1C | 3.12 (≈ 3.15 µM) |  | 434 |  |  |  | 3.12 (≈ 3.15 µM) |  |  | 3.12 (≈ 3.15 µM) | 1.56 (≈ 1.57 µM) |
| CO[C@@H]1C[C@H](C[C@@H](C)[C@@H]2CC(=O)[C@H](C)/C=C(\C)[C@@H](O)[C@@H](OC)C(=O)[C@H](C)C[C@H](C)/C=C/C=C/C=C(\C)[C@H](N(O)C(=O)N(C)C)C[C@@H]3CC[C@@H](C)[C@@](O)(O3)C(=O)C(=O)N3CCCC[C@H]3C(=O)O2)CC[C@H]1O | 100 (≈ 101 µM) | Weak | 2030 | Weak | 3.12 (≈ 3.16 µM) | ~100 (≈ 101 µM) | 100 (≈ 101 µM) | Weak | ~100 (≈ 101 µM) | 50 (≈ 50.7 µM) |  |
| CO[C@@H]1C[C@H](C[C@@H](C)[C@@H]2CC(=O)[C@H](C)/C=C(\C)[C@@H](O)[C@@H](OC)C(=O)[C@H](C)C[C@H](C)/C=C/C=C/C=C(\C)[C@@H](N(O)C(=O)N(C)C)C[C@@H]3CC[C@@H](C)[C@@](O)(O3)C(=O)C(=O)N3CCCC[C@H]3C(=O)O2)CC[C@H]1O | 100 (≈ 101 µM) | Weak | 2030 | Weak | 3.12 (≈ 3.16 µM) | ~100 (≈ 101 µM) | 100 (≈ 101 µM) | Weak | ~100 (≈ 101 µM) | 50 (≈ 50.7 µM) |  |
